According to ChEMBL document CHEMBL4680293, “Tubulin inhibitory activity of a novel colchicine-binding compounds based on a dinaphthospiropyranran scaffold” (Bioorg Med Chem, 2021):

Experiments:
COLO 205 = experiment: Anti-cancer activity against human COLO205 cells assessed as cell growth inhibition measured after 48 hrs by SRB method; type: functional, cell-based
786-0 = experiment: Anti-cancer activity against human 786-0 cells assessed as cell growth inhibition measured after 48 hrs by SRB method; type: functional, cell-based
EKVX = experiment: Anti-cancer activity against human EKVX cells assessed as cell growth inhibition measured after 48 hrs by SRB method; type: functional, cell-based
A498 = experiment: Anti-cancer activity against human A498 cells assessed as cell growth inhibition measured after 48 hrs by SRB method; type: functional, cell-based
Hs-578T = experiment: Anti-cancer activity against human HS-578T cells assessed as cell growth inhibition measured after 48 hrs by SRB method; type: functional, cell-based
NCI/ADR-RES = experiment: Anti-cancer activity against human NCI/ADR-RES cells assessed as cell growth inhibition measured after 48 hrs by SRB method; type: functional, cell-based
UO-31 = experiment: Anti-cancer activity against human UO-31 cells assessed as cell growth inhibition measured after 48 hrs by SRB method; type: functional, cell-based
OVCAR-3 = experiment: Anti-cancer activity against human OVCAR-3 cells assessed as cell growth inhibition measured after 48 hrs by SRB method; type: functional, cell-based
NCI-H322M = experiment: Anti-cancer activity against human NCI-H322M cells assessed as cell growth inhibition measured after 48 hrs by SRB method; type: functional, cell-based
MDA-MB-231 = experiment: Anti-cancer activity against human MDA-MB-231 cells assessed as cell growth inhibition measured after 48 hrs by SRB method; type: functional, cell-based
K562 = experiment: Anti-cancer activity against human K562 cells assessed as cell growth inhibition measured after 48 hrs by SRB method; type: functional, cell-based
NCI-H23 = experiment: Anti-cancer activity against human NCI-H23 cells assessed as cell growth inhibition measured after 48 hrs by SRB method; type: functional, cell-based
T47D = experiment: Anti-cancer activity against human T47D cells assessed as cell growth inhibition measured after 48 hrs by SRB method; type: functional, cell-based
CCRF-CEM = experiment: Anti-cancer activity against human CCRF-CEM cells assessed as cell growth inhibition measured after 48 hrs by SRB assay; type: functional, cell-based
A549 = experiment: Anti-cancer activity against human A549/ATCC cells assessed as cell growth inhibition measured after 48 hrs by SRB method; type: functional, cell-based
RPMI-8226 = experiment: Anti-cancer activity against human RPMI-8226 cells assessed as cell growth inhibition measured after 48 hrs by SRB method; type: functional, cell-based
[1] = Anti-cancer activity against human non-small lung cancer cells assessed as cell growth inhibition measured after 48 hrs by SRB method; type: functional; conditions: Non-small cell lung cancer cell line
NCI-H226 = experiment: Anti-cancer activity against human NCI-H226 cells assessed as cell growth inhibition measured after 48 hrs by SRB method; type: functional, cell-based
HCC 2998 = experiment: Anti-cancer activity against human HCC2998 cells assessed as cell growth inhibition measured after 48 hrs by SRB method; type: functional, cell-based
HCT-15 = experiment: Anti-cancer activity against human HCT-15 cells assessed as cell growth inhibition measured after 48 hrs by SRB method; type: functional, cell-based
M14 = experiment: Anti-cancer activity against human M14 cells assessed as cell growth inhibition measured after 48 hrs by SRB method; type: functional, cell-based
NCI-H460 = experiment: Anti-cancer activity against human NCI-H460 cells assessed as cell growth inhibition measured after 48 hrs by SRB method; type: functional, cell-based
[2] = Anti-cancer activity against human ovarian cancer cells assessed as cell growth inhibition measured after 48 hrs by SRB method; type: functional; conditions: Ovarian cancer cell line
MDA-MB-435 = experiment: Anti-cancer activity against human MDA-MB-435 cells assessed as cell growth inhibition measured after 48 hrs by SRB method; type: functional, cell-based
HL-60(TB) = experiment: Anti-cancer activity against human HL-60(TB) cells assessed as cell growth inhibition measured after 48 hrs by SRB method; type: functional, cell-based
UACC-257 = experiment: Anti-cancer activity against human UACC-257 cells assessed as cell growth inhibition measured after 48 hrs by SRB method; type: functional, cell-based
SK-OV-3 = experiment: Anti-cancer activity against human SK-OV-3 cells assessed as cell growth inhibition measured after 48 hrs by SRB method; type: functional, cell-based
[3] = time 48 hrs, read-out: LC50 (the source's name)

C1=C2CNCC3=Cc4c(ccc5ccccc45)OC23Oc2ccc3ccccc3c21
IC50 (COLO 205; COLO 205, 48 h): 3.72 µM | GI50 (COLO 205; COLO 205, time 48 hrs): 2.09 µM | TGI (COLO 205; COLO 205, time 48 hrs): 4.27 µM | CC50 (COLO 205; COLO 205, time 48 hrs, read-out: LC50 (the source's name)): 5.07 µM | IC50 (786-0; 786-0, 48 h): 9.55 µM | GI50 (786-0; 786-0, time 48 hrs): 5.13 µM | TGI (786-0; 786-0, time 48 hrs): 31.6 µM | IC50 (EKVX; 48 h): 20 µM | GI50 (EKVX; time 48 hrs): 5.75 µM | TGI (EKVX; time 48 hrs): 33.9 µM | IC50 (A498; A498, 48 h): 16.2 µM | GI50 (A498; A498, time 48 hrs): 3.89 µM | TGI (A498; A498, time 48 hrs): 17 µM | CC50 (A498; A498, time 48 hrs, read-out: LC50 (the source's name)): 4.34 µM | IC50 (Hs-578T; 48 h): 100 µM | GI50 (Hs-578T; time 48 hrs): 2.24 µM | TGI (Hs-578T; time 48 hrs): 10.5 µM | CC50 (Hs-578T; [3]): 4 µM | IC50 (NCI/ADR-RES; 48 h): 3.8 µM | GI50 (NCI/ADR-RES; time 48 hrs): 2.09 µM | TGI (NCI/ADR-RES; time 48 hrs): 6.03 µM | CC50 (NCI/ADR-RES; [3]): 4 µM | IC50 (UO-31; UO-31, 48 h): 17.4 µM | GI50 (UO-31; UO-31, time 48 hrs): 3.55 µM | TGI (UO-31; UO-31, time 48 hrs): 21.4 µM | CC50 (UO-31; UO-31, time 48 hrs, read-out: LC50 (the source's name)): 4.16 µM | IC50 (OVCAR-3; OVCAR-3, 48 h): 4.07 µM | GI50 (OVCAR-3; OVCAR-3, time 48 hrs): 2.34 µM | LC50 (OVCAR-3; OVCAR-3, time 48 hrs): 4.71 µM | TGI (OVCAR-3; OVCAR-3, time 48 hrs): 5.5 µM | IC50 (NCI-H322M; 48 h): 27.5 µM | GI50 (NCI-H322M; time 48 hrs): 10.7 µM | TGI (NCI-H322M; time 48 hrs): 33.1 µM | IC50 (MDA-MB-231; MDA-MB-231, 48 h): 22.9 µM | GI50 (MDA-MB-231; MDA-MB-231, time 48 hrs): 9.33 µM | TGI (MDA-MB-231; MDA-MB-231, time 48 hrs): 26.9 µM | CC50 (MDA-MB-231; MDA-MB-231, time 48 hrs, read-out: LC50 (the source's name)): 4.12 µM | IC50 (K562; K562, 48 h): 3.55 µM | GI50 (K562; K562, time 48 hrs): 2.95 µM | TGI (K562; K562, time 48 hrs): 21.4 µM | CC50 (K562; K562, time 48 hrs, read-out: LC50 (the source's name)): 4 µM | IC50 (NCI-H23; NCI-H23, 48 h): 20.9 µM | GI50 (NCI-H23; NCI-H23, time 48 hrs): 6.92 µM | TGI (NCI-H23; NCI-H23, time 48 hrs): 31.6 µM | IC50 (T47D; 48 h): 24.5 µM | GI50 (T47D; time 48 hrs): 8.32 µM | TGI (T47D; time 48 hrs): 23.4 µM | CC50 (T47D; [3]): 4.22 µM | IC50 (CCRF-CEM; 48 h): 5.37 µM | GI50 (CCRF-CEM; time 48 hrs): 3.63 µM | TGI (CCRF-CEM; time 48 hrs): 100 µM | CC50 (CCRF-CEM; [3]): 4 µM | IC50 (A549; A549, 48 h): 6.92 µM | GI50 (A549; A549, time 48 hrs): 4.47 µM | TGI (A549; A549, time 48 hrs): 20.4 µM | CC50 (A549; A549, time 48 hrs, read-out: LC50 (the source's name)): 4.14 µM | IC50 (RPMI-8226; RPMI-8226, 48 h): 13.8 µM | GI50 (RPMI-8226; RPMI-8226, time 48 hrs): 5.5 µM | TGI (RPMI-8226; RPMI-8226, time 48 hrs): 64.6 µM | CC50 (RPMI-8226; RPMI-8226, time 48 hrs, read-out: LC50 (the source's name)): 4 µM | GI50 [1]: 5.13 µM | IC50 (NCI-H226; NCI-H226, 48 h): 25.1 µM | GI50 (NCI-H226; NCI-H226, time 48 hrs): 10.5 µM | TGI (NCI-H226; NCI-H226, time 48 hrs): 27.5 µM | IC50 (HCC 2998; HCC 2998, 48 h): 8.51 µM | GI50 (HCC 2998; HCC 2998, time 48 hrs): 3.98 µM | LC50 (lethal concentration, 50% cell kill) (HCC 2998; HCC 2998, time 48 hrs): 4.11 µM | TGI (HCC 2998; HCC 2998, time 48 hrs): 19.5 µM | IC50 (HCT-15; HCT-15, 48 h): 5.5 µM | GI50 (HCT-15; HCT-15, time 48 hrs): 3.89 µM | LC50 (HCT-15; HCT-15, time 48 hrs): 4 µM | TGI (HCT-15; HCT-15, time 48 hrs): 22.4 µM | IC50 (M14; M14, 48 h): 3.8 µM | GI50 (M14; M14, time 48 hrs): 2.19 µM | TGI (M14; M14, time 48 hrs): 5.13 µM | CC50 (M14; M14, time 48 hrs, read-out: LC50 (the source's name)): 4.56 µM | IC50 (NCI-H460; NCI-H460, 48 h): 3.72 µM | GI50 (NCI-H460; NCI-H460, time 48 hrs): 3.24 µM | TGI (NCI-H460; NCI-H460, time 48 hrs): 13.2 µM | CC50 (NCI-H460; NCI-H460, time 48 hrs, read-out: LC50 (the source's name)): 4.14 µM | GI50 [2]: 3.63 µM | IC50 (MDA-MB-435; MDA-MB-435, 48 h): 2.4 µM | GI50 (MDA-MB-435; MDA-MB-435, time 48 hrs): 1.41 µM | TGI (MDA-MB-435; MDA-MB-435, time 48 hrs): 3.24 µM | IC50 (HL-60(TB); HL-60, 48 h): 5.32 µM | GI50 (HL-60(TB); HL-60, time 48 hrs): 5.57 µM | TGI (HL-60(TB); HL-60, time 48 hrs): 5.11 µM | CC50 (HL-60(TB); HL-60, time 48 hrs, read-out: LC50 (the source's name)): 4.07 µM | IC50 (UACC-257; UACC-257, 48 h): 37.2 µM | GI50 (UACC-257; UACC-257, time 48 hrs): 12.6 µM | LC50 (50% lethal concentration) (UACC-257; UACC-257, time 48 hrs): 4 µM | TGI (UACC-257; UACC-257, time 48 hrs): 38.9 µM | IC50 (SK-OV-3; SK-OV-3, 48 h): 8.13 µM | GI50 (SK-OV-3; SK-OV-3, time 48 hrs): 3.39 µM | TGI (SK-OV-3; SK-OV-3, time 48 hrs): 12.9 µM | CC50 (SK-OV-3; SK-OV-3, time 48 hrs, read-out: LC50 (the source's name)): 4.26 µM
